Laboratory results taken from patent publication US12714698B2, “Compositions and methods for treating or preventing dermal disorders” (Drexel University, priority 2015, dated 2026).

Key:
[1] = system: human cardiac fibroblasts; assay: Nanostring analysis of mRNA levels; assay type: cell-based; details: rapamycin
Procedure: (§1) Cell culture experiments utilizing NRTIs were of the following design. Cultures of either human lung or cardiac fibroblasts were cultivated according to standard culture protocols for these cells (Cristofalo, et al., Journal of Tissue Culture Methods 1980, 6:117-121). Parallel sets of cultures were maintained in normal growth media or in normal growth media with the addition of 1 nM rapamycin. Cultures were maintained with 1 nM rapamycin (Enzo Biologicals) for two weeks before exposure to NRTIs. Cell cultures were exposed to NRTIs at indicated concentrations in individual experiments (generally 10-20 μg/ml) for 7 days, with a change of media and fresh NRTIs at day 4. Mitochondrial measurements, bioanalyzer measurements, immunoblotting for protein expression and phosphorylation status, and assays for senescence were performed at the end of this 7-day period.
Differences in mitochondria-related gene expression was examined using a nanostring approach which allows multiplex evaluation of mRNA species in the absence of amplification and provides a direct count of mRNA molecules. The mRNA levels paralleled the changes observed in protein levels as mRNA levels for all subunits increased in cells exposed to NRTIs while rapamycin decreased mRNA levels for all subunits (FIGS. 2D-2H).

[2] = system: human cardiac fibroblasts; assay: Mitochondrial membrane potential, mass, superoxide and total ROS by flow cytometry; assay type: cell-based; details: cultures grown with 1 nM rapamycin, NRTIs 7 days
Procedure: as §1
Cell culture reagents were from Cellgro, unless indicated. WI-38 fetal-lung primary human fibroblasts or human cardiac fibroblasts were grown in MEM supplemented with 10% fetal bovine serum, 1% L-glutamine, MEM vitamins, and MEM non-essential amino acids. Cells were maintained in a 37° C. in 5% CO2 incubator. For treatment studies, cells were treated with 1 nM rapamycin (Enzo Biologicals) for two weeks before treatment with NRTIs. Cells were maintained by trypsinization and reseeding at a cell density of 1×10^4/cm^2 every 7 to 10 days. Emtricitabine (FTC) and tenofovir disoproxil fumarate (TDF) were kindly provided by the NIH AIDS Research & Reference Reagent program. During the 7-day exposure to the NRTIs, the pharmacologic inhibitors PD98059 (10 μM, Santa Cruz Biotechnologies), BI-D1870, GW5074, and SB203580 (10 μM, Enzo Biologicals) were added to the culture medium either during the final 48 hours or for the final 2 hours depending upon the experiment. During the 7-day exposure to NRTIs, Trolox (500 μM) and N-acetylcysteine (100 μM, Acros Organics) were added every other day. Mito-Q (20 nM) and TPP (20 nM) were kindly provided by Dr. Brett Kaufmann at the University of Pennsylvania School of Veterinary Medicine. Vector and mt-catalase adenoviruses (MOI's 25, 50, and 75) were purchased from Gene Transfer Vector Core from the University of Iowa.
Mitochondrial membrane potential was detected by incubating cells with 25 nM TMRE (Molecular Probes). Mitochondrial mass was evaluated by incubating the cells with 100 nM Mitotracker Green FM (Molecular Probes). Mitochondrial superoxide anion levels were detected by incubating the cells with 5 μM MitoSox Red (Molecular Probes). Total cellular levels of ROS were detected by incubating the cells with 10 μM 2′,7′-dichlorofluoroscein diacetate (DCF-DA; Sigma-Aldrich) in 1% fetal bovine serumsupplemented MEM and washing twice with Krebs Ringer phosphate glucose buffer (145 mM NaCl, 5.7 mM NaH2PO4, 4.86 mM KCL, 0.54 mM CaCl2), 1.22 mM MgSO4, and 5.5 mM glucose) following the incubation period. For the aforementioned assessments, incubation was performed at 37° C. in 5% CO2 for 30 minutes and cells were harvested in 2.5% trypsin-EDTA with serum-containing medium. Cells were immediately analyzed with a Guava EasyCyte Mini employing the Guava Express Plus program (Guava Technologies).

[3] = system: human cardiac fibroblasts; assay: Immunoblot of electron transport chain and mitochondrial clearance proteins; assay type: cell-based
Procedure: as §1
Cell protein extracts were prepared by extracting with radioimmunoprecipitation assay (RIPA) buffer containing a protease inhibitor cocktail (Sigma-Aldrich) and phosphatase inhibitors, NaF and sodium orthovanadate. Protein concentration was quantified using a bicinchoninic acid (BCA) assay (Pierce Biotechnology). Western blot analysis was performed using 15 to 30 μg of protein extracts that were run on SDS-PAGE and transferred onto nitrocellulose (Biorad) membranes. Blots were incubated with antibodies specific for: beta-actin (Sigma-Aldrich), TFAm, parkin, p16, phospho(S82)HSP27, HSP27 (Santa Cruz Biotechnologies), p53, 21, catalase, MDM2 (EMD Millipore), VDAC, phospho(S235/236)-ribosomal protein S6, ribosomal protein S6, phospho(S166)-MDM2, phospho(5473)-AKT, AKT, beta-tubulin (Cell Signaling), p62 (Enzo Biologicals), IL-6 (NeoBiolab), lamin B1, PINK1, and Mitoprofile Total OXPHOS Cocktail (complex I-NDUFB8 subunit, CII-SDHB subunit, CIIIUQCRC2 subunit, and CIV-mitochondrial COX1 subunit) (Abcam) according to manufacturers' instructions. […] For co-immunoprecipitation, cell protein extracts were prepared in HNTG buffer containing a protease inhibitor cocktail and quantified using BCA assay. […]

human fibroblasts = assay: Ethidium bromide mitochondrial stress in human fibroblasts
Description: Human fibroblasts were exposed to ethidium bromide for 7 days and cell viability measured at that time.

## CO[C@H]1C[C@@H]2CC[C@@H](C)[C@@](O)(O2)C(=O)C(=O)N2CCCC[C@H]2C(=O)O[C@H]([C@H](C)C[C@@H]2CC[C@@H](O)[C@H](OC)C2)CC(=O)[C@H](C)/C=C(\C)[C@@H](O)[C@@H](OC)C(=O)[C@H](C)C[C@H](C)/C=C/C=C/C=C/1C [rapamycin]
[1]
  mRNA levels for ETC subunits: decreased
[2]
  mitochondrial ROS following exposure to NRTIs: did not exhibit the same level of increase
  mitochondrial membrane potential following exposure to NRTIs: did not exhibit the same level of increase
  total cellular ROS following exposure to NRTIs: did not exhibit the same level of increase
[3]; cells treated with rapamycin vs control
  steady state levels of NDUFB8, SDHB, UQCRC2 and mt-CO1: lower
[3]; rapamycin-treated cells
  ETC protein levels on exposure to NRTIs: not elevated
[3]; response to rapamycin
  level of p62/SQSTM1: decreased
Human fibroblasts; ethidium bromide for 7 days
  survival of human fibroblasts following mitochondrial stress: increases the survival
Human fibroblasts; rapamycin treated cells
  mitochondrial network following exposure to EthBr: able to maintain their mitochondrial network
Human fibroblasts; rapamycin treated cells, no toxin
  mitochondrial network: normal mitochondrial network
